The subject of one data set is GFAP. Put plainly: Example 3: GFAP staining (reactive astrocytes). In kind it is in vivo, Sprague-Dawley rats. On the procedure:
(§1) Male Sprague-Dawley rats received either medial frontal cortex injury or sham surgery. Injections were given 1 and 6 hours post-injury, and every 24 hours for 7 days. Treatment groups (n=8) encompassed injured (I) and sham (S) acute withdrawal (AW), tapered withdrawal (TW) and vehicle (V) treatments. TW injections were progressively halved over the final two treatments. Behavioral testing was conducted post-surgery, mid- and post-withdrawal. Activity boxes were used to investigate vertical movements and exploration: Sensory neglect and anxiety behaviors were also analyzed. Brain harvesting was performed at 8 days or 3 weeks post-injury. Perfused tissue sections were analyzed for lesion volume and immunohistochemical response. Fresh brain tissue was flash frozen in chilled 2-methyl butane, and then homogenized for Western blot analysis.

The subject of data set [1] is medial frontal cortex injury or sham surgery. The data set can be described thus: Example 3: behavioral testing (anxiety, locomotor, sensory neglect), acute vs tapered withdrawal. In kind it is in vivo, Sprague-Dawley rats. On the procedure: as §1
The next data set concerns BBB. The conditions noted are these: in vitro (Betz et al. 1990); cited from earlier work.
For the next data set, the system named is BDNF. The data set can be described thus: Example 4: Western blotting densitometry, BDNF. Format: in vivo, Sprague-Dawley rats. From the text:
60 male Sprague-Dawley rats weighing 290-310 g at the time of injury were used in this experiment. Food and water were provided ad libidum before and after surgery. Animals were handled and weighed daily from their arrival, seven days pre-surgery, to brain extraction three weeks post-surgery. Animals were handled in squads of 12, with n=10 per experimental condition. All animal procedures were approved by the Emory University Animal Care and Use Committee, Protocol #131-2002.
Isofluorane anesthesia was induced for four minutes and 45 seconds at 5% and maintained at 2.5%. Normal body temperature was maintained with a surgical heating pad placed beneath the sterile dressings. The scalp incision area was shaved and sterilized with iodine and isopropanol. A midline incision was made along the scalp and the fascia cleared to expose the surface of the skull. Medial, lateral, and dorsal stereotaxic coordinates were determined at bregma, and a 5-7 mm diameter bilateral craniotomy was performed mid-sagitally, 3 mm anterior to bregma. […] Sutures were used to close the incision after bleeding ceased. Animals were placed in individual heated, clean recovery cages until they awakened, and were returned to clean individual home cages with accessible moistened food pellets. Sham animals were anesthetized, and an incision was made at the top of the head. The fascia was cleared to expose bregma, then the incision was sutured closed. Sham surgeries were matched to lesion surgeries for all experimental conditions.
Sham (S) and lesion (L) animals were randomly assigned to one of three treatment groups: vehicle (VS, VL), acute withdrawal (AWS, AWL), and tapered withdrawal (TWS, TWL). […] Tapering was induced as halved dosages over the last two days of treatment. Dilutions for TW treatments were made with HBC stock. […]
Brains for protein analysis were sectioned into the immediate area of the lesion and snap frozen in 2-methyl-butane chilled on dry ice. […] The amount of brain homogenate needed to standardize samples to 2 μg/μL for Western blotting was calculated from the results of these assays. […]
In general terms: Immunoblotting shows a protein as a band on a membrane.

Another data set has as its system traumatic brain injury. Put plainly: Example 2: dose response, sticker removal task (sensory neglect) after TBI, cyclodextrin vehicle. Format: in vivo. As to the method:
[…] Pairs of circular adhesive papers (2 cm dia) were attached to the distal-radial areas of each forepaw and the rats' latencies to remove the stimuli were recorded. Each rat was given four trials (2-min ITI) per testing period with a maximum trial length of 2 minutes.
Surgery to induce a traumatic brain injury was performed as outlined in Example 1. Behavior testing using the Morris Water Maize was performed as outlined in Example 1 and the methods for the tactical adhesive removal were performed.

The source of these data is patent publication US8614203B2, “Methods for the treatment of a central nervous system injury via a tapered administration protocol” (Emory University, priority 2005, dated 2013).

As to `CC(=O)[C@H]1CC[C@H]2[C@@H]3CCC4=CC(=O)CC[C@]4(C)[C@H]3CC[C@]12C` [progesterone, pregn-4-ene-3,20-dione], the “reactive astrocytes (GFAP staining)” value in the data set with GFAP (acute withdrawal, injured, rank between TWI and VI) is reported as “followed by AWL”; with GFAP (tapered withdrawal, injured (TWI)), “fewest reactive astrocytes”. Besides, the “anxiety, locomotor and sensory deficits” value in data set [1] (injured (AWI) vs tapered withdrawal, injured (TWI)) is “increase anxiety, locomotor and sensory deficits compared to tapered progesterone withdrawal”. Besides, in data set [1] (injured (AWI), one week later), the “behavioral impairments one week after peak of withdrawal” value is listed as “increased behavioral impairments are still evident in AWI animals”. In addition, the motor impairments result in data set [1] (shams (AWS) vs other shams) is “increased motor impairments compared to all other shams”. Also, the anxiety entry in data set [1] (shams (AWS) vs tapered progesterone rats) is “increased anxiety compared to tapered progesterone rats”. For the same molecule, the “permeability of the BBB” value in the data set on BBB is given as “reduce the permeability of the BBB to macromolecules, but not ions”. For the same molecule, the BDNF levels entry was “AWL over VL” with BDNF (acute withdrawal, lesion (AWL) vs VL, three weeks post-injury); “Sham animals did not display any differences between treatment groups” in the data set on BDNF (sham animals (AWS, TWS, VS)); “increase in BDNF levels for TWL over AWL” in the data set with BDNF (tapered withdrawal, lesion (TWL) vs AWL, three weeks post-injury). Further, the “sticker removal task (sensory neglect), initial” value in the data set with traumatic brain injury (all doses (8, 16, 32 mg/kg), initially) is “initially produce behavioral recovery”. The “sticker removal task (sensory neglect), later course” value in the data set with traumatic brain injury (high dose (32 mg/kg)) is recorded as “degraded to lesion control levels”; in the data set with traumatic brain injury (moderate dose (16 mg/kg), day 21 post-injury), “improved to sham levels by day 21 post-injury”.
